From US10675267B2, “Methods for detection and eradication of myeloid leukemia stem cells” (priority 2015, dated 2020)
Entries after “also recorded” stand apart in the source; their conditions may differ.

Columns and labels:
[1] = tested on: pFlare splicing reporter (MAPT exon 10) in HEK293 cells; assay: Dual fluorescence (RFP/GFP) alternative splicing reporter (pFlare) assay; assay type: cell-based
Protocol: For evaluation of in vitro splicing activity using a two-color fluorescent splicing reporter system, HEK293T cells (mycoplasma-free authenticated cell lines obtained from ATCC) were grown in complete media (DMEM+10% FBS) and transfected with a series of fluorescent protein-expressing plasmids. Vector controls include pFlare5A, which expresses solely GFP, and pFlare5G, which expresses maximal RFP. The pFlare reporter contains microtubule-associated protein tau (MAPT) exon 10 as an indicator of alternative splicing. Under physiological conditions, the pFlare conditional reporter vector allows in-frame expression of GFP but not RFP. In the presence of splicing inhibitors, exon skipping favors production of RFP over GFP. […] Fluorescence was evaluated on a Leica fluorescent microscope (Sanford Consortium Stem Cell Core facility) and then analyzed by flow cytometry on a Miltenyi MACSQUANT® to assess transfection efficiency (ranging from over 70% at 24 hrs after transfection to approximately 20% at 48 hrs after transfection) and mean fluorescence intensity (MFI) of RFP and GFP in positive cells. In HEK293 cells transiently transfected with control GFP or RFP vectors, or the pFlare splicing reporter vector, the dynamic range of the assay as measured by MFI of GFP and RFP 48 hours after transfection ranged from 0.41-1.69 for RFP/GFP ratios (FIG. 6A). […]

[2] = Mouse weights over the two-week treatment period (tolerability); assay type: in vivo; details: 5-10 mg/kg intravenously, three doses over two weeks
Protocol: For in vivo treatments, a 10 mg/mL stock solution of 17S-FD-895 solubilized in DMSO was used. After randomization, AML-engrafted mice were dosed intravenously with 17S-FD-895 (5-10 mg/kg) or vehicle (for AML-08, vehicle control=15% DMSO in PBS; for AML-37, vehicle control=20% DMSO in PBS) three times over a two-week period, with the first dose given on day 1, the second on day 7, and the third on day 14. For preparation of RNA from human LSC-enriched populations, single cell suspensions from spleen and bone marrow were CD34 double-selected (over two LS selection columns, Miltenyi) and 1-2×10^5 cells were collected in lysis buffer or pooled according to treatment group for serial transplantation assays.
All animal studies were performed in accordance with UCSD and NIH-equivalent ethical guidelines and were approved by the Institutional Animal Care and Use Committee. Three AML PRIMAGRAFT™ models were established from AML LSC-enriched cell fractions (1-2×10^5 CD34^+ cells) transplanted intrahepatically into neonatal Rag2^−/−γc^−/− as previously described (Abrahamsson et al., 2009), or intravenously into sublethally irradiated adult (6-8 weeks old) NOD/SCID-IL2RG mice (NSGS, Jackson Laboratory). […] After treatment, hematopoietic tissues were analyzed as described following. […]

Structure (SMILES): CC[C@H](OC)[C@@H](C)[C@H]1O[C@@H]1[C@@H](O)[C@H](C)/C=C/C=C(\C)[C@H]1OC(=O)C[C@H](O)CC[C@@](C)(O)[C@@H](OC(C)=O)/C=C/[C@@H]1C (stereo in doubt) [Formula 17S-FD-895, 17S-FD-895]
- RFP/GFP ratios ([1]; HEK293 cells, 0.01-10 μM, 24 hrs, flow cytometry MFI): dose-dependent increase
- RFP fluorescence by confocal microscopy ([1]; reporter-transfected HEK293 cells, 1-10 μM, live-cell / time-lapse): increase in RFP fluorescence; also recorded: increased RFP/GFP expression; also recorded: increased RFP fluorescence
- tolerability / weight changes [2]: well tolerated, with no significant weight changes detected
